Consider eight molecules from US8785500B2, “Intranasal administration of ketamine to treat depression” (priority 2006, dated 2014).

Data set [1] relates to major depression. The settings on record: reviews of antidepressant trials; cited from earlier work.
The conditions of data set [2]: in vivo; cited from earlier work.
The conditions of data set [3]: clinical trials; cited from earlier work.
The subject of data set [4] is men and women with intractable central neuropathic pain. The following applies: cited from earlier work; for pain disability and subjective physical and mental function: 75 mg transdermally over 24 hours for 7 days.
The test system of data set [5] is subjects with major depression. The following applies: cited from earlier work.
In data set [6] the test system is women after abdominal gynecological surgery with lidocaine epidural blockade. The settings on record: cited from earlier work.
For a further data set, the system named is male Wistar rats. The following applies: single dose; cited from earlier work.
For data set [7] the following is noted: in vivo; cited from earlier work. This is another data set of the same source.
In data set [8] the test system is subjects with DSM-IV treatment-resistant major depression. Put plainly: Randomized, placebo-controlled, double-blind crossover study of a single intravenous ketamine hydrochloride infusion. The settings on record: for effect size for the drug difference (d), HDRS: ketamine vs placebo. The source says:
Treatment-resistant major depression is a relatively common occurrence in clinical practice, with up to 50 to 60% of patients not achieving adequate response following antidepressant treatment. […] If the depression has not benefited from at least two adequate trials of medications from different classes in the current episode, clinically significant resistance is present. Several schemes to “stage” the degree of resistance have been proposed. The most widely accepted scheme uses the staging system of Thase and Rush. The stages of resistance are as follows:
Thus, the patient population to be treated by the present invention may be defined according to any one or more of the above schemes. After a 2-week drug-free period, exemplary subjects having treatment-resistant depression were given an intravenous infusion of either ketamine hydrochloride (0.5 mg/kg) or placebo on 2 test days, a week apart. Subjects were rated at baseline and at 40, 80 minutes, 110 minutes, 230 minutes and days 1, 2, 3 and 7 post-infusion. The outcome of the treatment was measured using changes in scores on the primary efficacy to measure the 21-item Hamilton Depression Rating Scale (HDRS).
Men and women, ages 18 to 65 years, who were inpatients with a diagnosis of major depressive disorder recurrent without psychotic features as diagnosed by means of the Structured Clinical Interview for Axis I DSM-IV Disorders—Patient Version 28 were eligible to participate.
All subjects were in good physical health as determined by medical history, physical exam, blood labs, electrocardiogram, chest x-ray, urinalysis and toxicology. Subjects were free of comorbid substance abuse or dependence for at least 3 months and judged clinically not to be a serious suicidal risk.
After a 2 week drug-free period, 18 subjects with DSM-IV major depression were randomized to an intravenous infusion of either ketamine hydrochloride (0.5 mg/kg) or placebo (saline solution) given over 40 minutes with a Baxter infusion pump on 2 test days, a week apart, in a double-blind, crossover study. Seventeen subjects received ketamine and 14 received placebo.
Subjects were rated 60 minutes prior to the infusion and at 40, 80, 110, and 230 minutes as well as 1, 2, 3, and 7 days after the infusion. The 21-item HDRS, Beck Depression Inventory Scale (BDI; [31]), Brief Psychiatric Rating Scale-positive symptoms (BPRS; [32]), Young Mania Rating Scale (YMRS; [33]), and the visual analogue scales score (VAS-depression; [34]). Raters, who trained together to establish reliability, performed patient ratings. […] Subjects were rated by a separate set of raters to help maintain blind to the infusion procedures and resulting side effects. The first set of raters administered the scales on the day of infusion (60 minutes prior to the infusion and 40, 80, 110 post-infusion). From 230 minutes onwards (days 1 through 7), a separate group of raters rated the subjects. Clinical response was defined as a 50% or greater decrease in the HDRS rating scale from baseline and remission as HDRS≦7 [35].
A full factorial, fixed effects linear mixed model with a compound symmetry covariance structure was used to examine the differences between ketamine and placebo over 9 time points from baseline to 7 days. Restricted maximum likelihood estimation was used to estimate missing values. Significant effects were examined with simple effects tests. The 21-item HDRS was the primary outcome measure. Scores from the BDI, BPRS, YMRS, and VAS were secondary outcome measures. Secondary analysis included examination of the individual items of the HDRS. Significance was evaluated at α<0.05, two-tailed.

Data set [9] deals with non-NMDA voltage-gated potassium currents. The following applies: in vitro; cited from earlier work.
In data set [10] the test system is chronic pain patients with breakthrough pain (BTP). The following applies: 10-50 mg intranasal; cited from earlier work.
The test system of a further data set is NMDA receptor. The settings on record: cited from earlier work.
The nature of data set [11]: Intranasal versus intravenous ketamine plasma levels. The settings on record: human, other: intranasal.
Method: The slow infusion of ketamine produces gradually increasing plasma levels during the infusion period. Dose-wise, the typical ketamine dose for surgical induction is between 1.0-2.0 mg/kg, with additional ketamine used to sustain anesthesia.
Data set [12] has as its system major depression. The following applies: administered orally; cited from earlier work.
The mark [13] stands for this setting: both, human, in vivo, intravenous, 0.5 mg/kg.
[14] abbreviates: one day after infusion, intent to treat, n=17.

Take `COc1ccc(C(CN(C)C)C2(O)CCCCC2)cc1` (centres unmarked) [venlafaxine]: in the data set on major depression [1], the “response rates at week 8” value is 65%.

With `CC(NC(C)(C)C)C(=O)c1cccc(Cl)c1` (centres unmarked) [bupropion], the “response rates at week 8” value in the data set with major depression [1] is given as 62%.

Broadly, the half-life is the time in which the quantity being followed falls by half. Take `NC1(c2ccccc2Cl)CCCCC1=O` (centres unmarked) [norketamine]: the half-life in data set [2] was about 5 h.

`Nc1nnc(-c2cccc(Cl)c2Cl)c(N)n1` [lamotrigine]: the antidepressant properties result in data set [3] was “found to have antidepressant properties”.

For `CN[C@]1(c2ccccc2Cl)CCCCC1=O` [S(+)-ketamine], the “pain intensity (Visual Analog Scale)” value in [4] (50 mg, 75 mg or placebo) is on record as “no change among groups”. In addition, in data set [4], the “pain disability and subjective physical and mental function” value was “significant improvement in pain disability, and subjective physical and mental function”. Also, the “dissociation or psychotic symptoms” value in data set [4] (in vivo) is “no reports of dissociation or psychotic symptoms”.

Regarding `Nc1nc2ccc(OC(F)(F)F)cc2s1` [riluzole], the antidepressant properties result in data set [3] is recorded as “found to have antidepressant properties”.

For the molecule `CNC1(c2ccccc2Cl)CCCCC1=O` (racemic) [ketamine, 2-(2-chlorophenyl)-2-(methylamino)-cyclohexanone], the “patients with 50% or greater decrease in HDRS during the 3-day follow-up period” value in data set [5] (Berman et al.) is on record as 4 of 8. The “onset of antidepressant effect post-infusion” value in data set [5] (previous study (Berman et al.)) is 230 min. Also, the antidepressant effect result in data set [5] (single intravenous dose, 7 subjects) is “rapid and short-lived antidepressant effect”. In [6] (transdermal 25 mg over 24 hrs), the side effects entry is reported as “no side effects”. The “time to rescue analgesic” value in data set [6] (transdermal patch 25 mg/24 hours, placebo 94±54) was 230 ± 112 min. Also, the “time for which induction of behavioral despair is interfered with” value in the data set on male Wistar rats is “up to 10 days”. Moreover, the “intranasal plasma levels (pain) lower than in intravenous studies in depression” value in data set [7] is given as 3-4 fold. Besides, the “onset of improvement in depression post-infusion” value in data set [8] (HDRS vs placebo) is at most 2 h. For the same molecule, the “effect size for the drug difference (d), HDRS” value in [8] (after 1 week, completers) was 0.68. In addition, the “effect size for the drug difference (d), HDRS” value in [8] (after 24 hours, completers) was 1.46. For the same molecule, in data set [8] (setting [13]), the “only time at which BPRS positive symptoms were worse on ketamine than placebo” value was found to be 40 min, the “only time at which YMRS scores were worse (higher) on ketamine than placebo” value was 40 min and the “time beyond which euphoria or derealization/depersonalization did not persist” value is at most 110 min. Also, in data set [8] (completers), the “earliest improvements, depressed mood and guilt (HDRS items)” value stood at 40 min; the “individual HDRS symptoms with only a significant main effect for drug” value was “symptoms improved on ketamine for suicide, insomnia, general somatic symptoms, genital symptoms, and hypochondriasis”; the “individual HDRS symptoms with significant time by drug interaction” value is “Depressed mood, guilt, work and interests, and psychic anxiety improved significantly”; the “time at which motor retardation and gastrointestinal symptoms (HDRS items) were worse” value came to 40 min. Further, in [8] (first phase data only, significant through the seventh day), the “time by which HDRS scores were lower on ketamine” value amounted to 80 min. Further, in data set [8] (first-phase baseline 24.9±6.9, one week after infusion), the “baseline HDRS in the second phase of those who received ketamine first (carryover)” value worked out at 17.2±6.9. For the same molecule, in data set [8] (group mean ±), the “Peak change in BPRS positive symptoms on Ketamine, Group” value was “+3.1 ± 3.4”. Further, the “% Change in HDRS (day 1) Ketamine, Group” value in data set [8] (group mean ±, 0.5 mg/kg i.v. over 40 min, baseline to day 1) is on record as −56.2 ± 20.4%. Besides, the “side effects occurring more commonly on ketamine than placebo” value in data set [8] (in vivo) was “perceptual disturbances, confusion, elevations in blood pressure, euphoria, dizziness, and increased libido”. Further, the “time after infusion within which side effects ceased” value in data set [8] (majority of side effects) is at most 80 min. In data set [8] (setting [14]), the “subjects meeting remission criteria (HDRS≦7)” value is on record as 29% and the “subjects meeting response criteria (50% or greater decrease in HDRS)” value was 71%. In data set [8] (single infusion 0.5 mg/kg), the “subjects who maintained response at least 2 weeks” value turned out to be 2 subjects and the “subjects who maintained response for at least 1 week” value is reported as 35%. For the same molecule, the “time from which VAS depression (mood) improved on ketamine” value in data set [8] (through 7 days) was found to be 40 min. Besides, the “time from which self-rated BDI improved on ketamine” value in data set [8] (through 7 days, completers) was 40 min. For the same molecule, the half-life entry in [2] is “approximately 2 hours”. For the same molecule, the “effect on non-NMDA voltage-gated potassium currents” value in [9] is “only reduces non-NMDA voltage-gated potassium currents at much higher than reported in patients anesthetized with ketamine”. Further, the “pain disability and subjective physical and mental function” value in data set [4] was “significant improvement in pain disability, and subjective physical and mental function”. In addition, in [10], the “breakthrough pain versus placebo” value was “lower BTP” and the side effects result is “very few side effects”. In the data set on NMDA receptor, the “affinity for the NMDA receptor in contrast to memantine” value is given as “higher affinity for the NMDA receptor”, the “affinity for the NMDA receptor versus other sites” value is “several fold higher than that for other sites” and the “open channel blocking/unblocking kinetics in contrast to memantine” value was “much slower open channel blocking/unblocking kinetics”. Also, in [11], the “i.v. dose roughly equivalent to the intranasal dose used for pain (50 mg)” value was about 0.1 mg/kg.

Regarding `CC12CC3CC(C)(C1)CC(N)(C3)C2` [memantine], in the data set on major depression [12], the antidepressant effects result was “did not show the low- to moderate-affinity non-competitive NMDA antagonist memantine, administered orally, to have antidepressants effects”.
